In patent US9149465B2, “Isoxazolines as inhibitors of fatty acid amide hydrolase” (Infinity Pharmaceuticals, Inc., priority 2009, dated 2015):

Target: T1, human FAAH (Homo sapiens, UniProt O00519)
T1 construct: host or cells: COS-7 cells, transient transfection; 13,000 g membrane fraction solubilised in 1% Triton X-100
T1 sequence (O00519 1-579): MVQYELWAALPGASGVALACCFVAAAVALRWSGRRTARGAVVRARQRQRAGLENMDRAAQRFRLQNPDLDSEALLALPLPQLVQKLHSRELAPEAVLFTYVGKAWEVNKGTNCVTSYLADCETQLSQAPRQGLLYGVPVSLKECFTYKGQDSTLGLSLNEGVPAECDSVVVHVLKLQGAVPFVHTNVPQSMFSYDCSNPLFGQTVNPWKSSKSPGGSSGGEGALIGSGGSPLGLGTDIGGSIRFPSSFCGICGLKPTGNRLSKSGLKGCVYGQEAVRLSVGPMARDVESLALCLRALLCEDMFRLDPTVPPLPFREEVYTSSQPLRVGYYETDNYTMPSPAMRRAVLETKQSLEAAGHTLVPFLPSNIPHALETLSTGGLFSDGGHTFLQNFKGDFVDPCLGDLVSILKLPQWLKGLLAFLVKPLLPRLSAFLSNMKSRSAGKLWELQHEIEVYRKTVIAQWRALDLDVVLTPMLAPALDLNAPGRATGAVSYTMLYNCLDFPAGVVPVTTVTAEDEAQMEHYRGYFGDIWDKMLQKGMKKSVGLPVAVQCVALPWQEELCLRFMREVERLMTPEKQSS
Assay: Inhibition of human FAAH (AMC arachidonoyl amide fluorescence assay)
Format: biochemical
Details: inhibitor preincubated 30 minutes at room temperature; 20 μM AMC arachidonoyl amide; 4 hours; read-out: Activity (Ki, inhibitors of human FAAH)
Experimental: Human FAAH Preparation: COS-7 cells were split the day before, 1:5 into 150 mm x […] cell culture dishes (Corning Inc., Cat. No. 430599). Transient transfection took place at 30-40% confluency according to FuGENE 6 Transfection Reagent (Roche, Cat. No. 11814 443 001).
Transfection Procedure: The FuGENE transfection 6 reagent (45 uL) was added to 1410 μL of media (DMEM, serum free without pen/strep) in a 15 mL conical tube and incubated at room temp for 5 minutes, followed by the addition of FAAH plasmid DNA (15 μg) (OriGene Cat. No. TC119221, Genbank Accession No. NM_001441.1, 0.67 ug/uL) and a further incubation of 15 minutes at room temperature. The resulting solution was added into one dish of 30-40% confluent COS-7 cells in a drop-wise manner. The COS-7 cell dish was subsequently incubated for 48 hours. The cells are then harvested.
Harvest procedure: Media was aspirated from the dishes and the cells rinsed with 10 mL PBS. The PBS was removed and 3 mL of PBS added to the dish. The dish was scraped to resuspend the cells, and the subsequent cell suspension collected into a 15 mL conical tube. The cells were pelleted by centrifugation at 1200 rpm for 5 minutes in a bench top centrifuge. PBS was removed and the cell pellet snap frozen in liquid nitrogen and stored at −80° C.
COS-7 cells —FAAH purification: • (1) Fractionation: Frozen cell pellets from transient transfections were thawed on ice and resuspended in 12.5 mM Hepes pH 8.0, 100 mM NaCl, 1 mM EDTA (10 mL/0.2 g cell pellet). The pellets were dounce homogenized and then sonicated to produce cell extract. The cell extract was subsequently centrifuged at 1000 g to remove cellular debris. The pellet was discarded and the supernatant centrifuged at 13,000 g for 20 minutes. The pellet contained membrane bound FAAH. The supernatant was discarded and the pellet resolubilized. • (2) Re-solubilization: The fraction of interest, (13,000 g, membrane fraction) was re-suspended in 2.3 mL re-suspension buffer (20 mM Hepes pH 7.8, 10% v/v Glycerol, 1 mM EDTA, 1% Triton X-100) and the sample incubated on ice for 1 hour and then centrifuged to remove any particulate matter. The supernatant containing solubilized human FAAH was aliquoted and snap frozen in liquid nitrogen and stored at −80° C. until use. • (3) Characterization: Protein Concentration determined by Bradford assay. • SDS gel and Western blot to confirm presence of FAAH • FAAH activity assay • Km determination-96-well assay • Linear dependence—96-well assay • Standard compound Ki determination—384-well assay
Human FAAH assay; Experimental Protocol: A 0.1 mg/mL Human FAAH solution was made up in FAAH reaction buffer, and 24 ul pipeted into a 384 well plate. To this was added 1 μL of a 3 fold serially diluted inhibitor from a DMSO stock solution. The FAAH solution and inhibitor were incubated for 30 minutes at room temperature. The FAAH reaction was initiated by the addition of 25 μL of 40 μM AMC Arachidonoyl Amide in FAAH reaction buffer, yielding a final reaction human FAAH preparation concentration of 0.05 mg/ml and AMC-Arachidonoyl substrate concentration of 20 μM, reaction volume 50 μL. The reaction was allowed to proceed for 4 hours at room temperature. The reaction was stopped by the addition of 25 μL 12 μM a-ketoheterocycle (Cayman Chemicals, catalogue #10435). The microtiter plate was read in the envision plate reader.
The raw fluorescence was plotted on the y axis and the inhibitor concentration on the x axis to give a dose response inhibition curve. The data was fitted to a single site competitive inhibition equation, fixing the Km for the human enzyme to 12 μM and 9 μM respectively.

Row | Structure (SMILES) | Ki [nM]
1 | Fc1ccc([C@H]2CC(Br)=NO2)cc1 (racemic) [I-2] | 100 to 1000
2 | Clc1ccc([C@H]2CC(Br)=NO2)cc1 (racemic) [I-3] | ≤ 100
3 | COc1ccc([C@H]2CC(Br)=NO2)cc1 (racemic) [I-6] | ≤ 100
4 | FC(F)(F)Oc1ccc(C2CC(Br)=NO2)cc1 (racemic) [I-14, 3-bromo-5-(4-(trifluoromethoxy)phenyl)-4,5-dihydroisoxazole] | ≤ 100
5 | CC(C)Oc1ccc([C@H]2CC(Br)=NO2)cc1 (racemic) [I-15] | ≤ 100
6 | BrC1=NO[C@@H](c2ccc3c(c2)OCO3)C1 (racemic) [I-16] | ≤ 100
7 | CCCCOc1ccc([C@H]2CC(Br)=NO2)cc1 (racemic) [I-20] | ≤ 100
8 | O=C(NCc1ccccc1)c1ccc([C@H]2CC(Br)=NO2)cc1 (racemic) [I-22] | 100 to 1000
9 | COc1ccc([C@H]2CC(Oc3cccnc3)=NO2)cc1 (racemic) [I-38] | 100 to 1000
10 | NC(=O)c1cncc(OC2=NOC(c3ccc(OC(F)(F)F)cc3)C2)c1 (racemic) [I-53] | 100 to 1000
11 | O=C(O)c1cncc(OC2=NOC(c3ccc(OC(F)(F)F)cc3)C2)c1 (racemic) [I-55] | ≥ 1000
12 | c1ccc(Oc2ccc(C3CC(Oc4cnc5cc[nH]c5c4)=NO3)cc2)cc1 (racemic) [I-57] | ≤ 100
13 | Fc1ccccc1OC1=NOC(c2ccc(Oc3ccccc3)cc2)C1 (racemic) [I-59] | 100 to 1000
14 | Fc1ccc(OC2=NOC(c3ccc(Oc4ccccc4)cc3)C2)cc1C(F)(F)F (racemic) [I-60] | ≥ 1000
15 | COC(=O)c1ccc(OC2=NOC(c3ccc(Oc4ccccc4)cc3)C2)cc1 (racemic) [I-62] | ≤ 100
16 | N[S@SP3](=O)(=O)c1cccc(OC2=NOC(c3ccc(Oc4ccccc4)cc3)C2)c1 (racemic) [I-63] | ≥ 1000
17 | N[S@SP3](=O)(=O)c1cccc(OC2=NOC(c3ccc(Oc4ccccc4)cc3)C2)c1 (racemic) [I-64] | ≥ 1000
18 | COc1cncc(OC2=NOC(c3ccc(Oc4ccccc4)cc3)C2)c1 (racemic) [I-65] | ≤ 100

Row | Structure (SMILES) | Ki [nM]
19 | COC(=O)c1ccc(OC2=NOC(c3ccc(Oc4ccccc4)cc3)C2)cn1 (racemic) [I-67] | ≤ 100
20 | c1ccc(Oc2ccc(C3CC(Oc4cnc5[nH]ccc5c4)=NO3)cc2)cc1 (racemic) [I-68] | ≤ 100
21 | FC(F)(F)Oc1ccc(C2CC(Oc3cccnc3)=NO2)cc1 (racemic) [I-70] | ≤ 100
22 | CC1(c2ccc(OC(F)(F)F)cc2)CC(Br)=NO1 (racemic) [I-75] | ≤ 100
23 | COC(=O)c1cccc(-c2ccc(OC3=NOC(c4ccc(OC(F)(F)F)cc4)C3)cn2)c1 (racemic) [I-83] | 100 to 1000
24 | O=C(O)c1cccc(-c2ccc(OC3=NOC(c4ccc(OC(F)(F)F)cc4)C3)cn2)c1 (racemic) [I-85] | 100 to 1000
25 | CC1(c2ccc(OC(F)(F)F)cc2)CC(Oc2cccnc2)=NO1 (racemic) [I-88] | 100 to 1000
26 | C[C@@H]1C(Oc2cccnc2)=NO[C@H]1c1ccc(Oc2ccccc2)cc1 (racemic) [I-91] | ≥ 1000
27 | CC(=O)Nc1ccc(OC2=NOC(c3ccc(Oc4ccccc4)cc3)C2)cn1 (racemic) [I-94] | ≤ 100
28 | CCC1(c2ccc(Oc3ccccc3)cc2)CC(Br)=NO1 (racemic) [I-95] | ≤ 100
29 | COC(=O)c1ccc(OC2=NOC(c3ccc(OC(F)(F)F)cc3)C2)cn1 (racemic) [I-96] | ≤ 100
30 | COC(=O)CCc1ccc(OC2=NOC(c3ccc(Oc4ccccc4)cc3)C2)cn1 (racemic) [I-98] | ≤ 100
31 | c1ccc(-c2ccc([C@H]3CC(Oc4cccnc4)=NO3)cc2)cc1 (racemic) [I-101] | ≤ 100
32 | C[C@]1(c2ccc(-c3ccccc3)cc2)CC(Br)=NO1 (racemic) [I-102] | ≤ 100
33 | c1ccc(-c2ccc([C@H]3CC(Oc4cncnc4)=NO3)cc2)cc1 (racemic) [I-103] | ≤ 100
34 | C[C@]1(c2ccc(-c3ccccc3)cc2)CC(Oc2cncnc2)=NO1 (racemic) [I-104] | ≤ 100
35 | COC(=O)CNC(=O)c1ccc(OC2=NOC(c3ccc(OC(F)(F)F)cc3)C2)cn1 (racemic) [I-105] | ≤ 100

The remaining lines, values ahead:

Row | Ki [nM] | Structure (SMILES)
36 | ≤ 100 | BrC1=NO[C@@H](c2ccc(-c3ccccc3)cc2)C1 (racemic) [I-9]
37 | ≤ 100 | CNC(=O)c1cncc(OC2=NOC(c3ccc(OC(F)(F)F)cc3)C2)c1 (racemic) [I-54]
38 | ≤ 100 | FC(F)(F)c1ccc(OC2=NOC(c3ccc(Oc4ccccc4)cc3)C2)cn1 (racemic) [I-56]
39 | 100 to 1000 | N#Cc1cccc(OC2=NOC(c3ccc(Oc4ccccc4)cc3)C2)c1 (racemic) [I-58]
40 | ≤ 100 | COC(=O)c1cccc(OC2=NOC(c3ccc(Oc4ccccc4)cc3)C2)c1 (racemic) [I-61]
41 | ≤ 100 | COc1ncc(OC2=NOC(c3ccc(Oc4ccccc4)cc3)C2)cn1 (racemic) [I-66]
42 | ≤ 100 | c1ccc(Oc2ccc(C3CC(Oc4cnc5ccoc5c4)=NO3)cc2)cc1 (racemic) [I-69]
43 | ≤ 100 | FC(F)(F)Oc1ccc(C2CC(Oc3cncc(Br)c3)=NO2)cc1 (racemic) [I-71]
44 | 100 to 1000 | FC(F)(F)Oc1ccc(C2CC(Oc3cncc(-c4ccccc4)c3)=NO2)cc1 (racemic) [I-72]
45 | ≤ 100 | NC(=O)c1cccc(-c2cncc(OC3=NOC(c4ccc(OC(F)(F)F)cc4)C3)c2)c1 (racemic) [I-73]
46 | ≤ 100 | COC(=O)c1ccc(C2CC(Br)=NO2)cc1 (racemic) [I-74]
47 | ≤ 100 | CC1(c2ccc(Oc3ccccc3)cc2)CC(Br)=NO1 (racemic) [I-76]
48 | ≥ 1000 | COc1ccc([C@@H]2ON=C(Br)[C@H]2C)cc1 (racemic) [I-77]
49 | 100 to 1000 | CCOC(=O)c1cccc(-c2ccc(OC3=NOC(c4ccc(OC(F)(F)F)cc4)C3)cn2)c1 (racemic) [I-84]
50 | 100 to 1000 | FC(F)(F)Oc1ccc(C2CC(Oc3ccc(-c4ccccc4)nc3)=NO2)cc1 (racemic) [I-86]
51 | ≤ 100 | c1cncc(OC2=NOC(c3ccc(Oc4cccnc4)cc3)C2)c1 (racemic) [I-87]
52 | ≤ 100 | CC1(c2ccc(Oc3ccccc3)cc2)CC(Oc2cccnc2)=NO1 (racemic) [I-89]
53 | ≤ 100 | NS(=O)(=O)c1ccc(OC2=NOC(c3ccc(Oc4ccccc4)cc3)C2)cc1 (racemic) [I-90]
54 | ≥ 1000 | CC(C)(C)OC(=O)Nc1ccc(OC2=NOC(c3ccc(Oc4ccccc4)cc3)C2)cn1 (racemic) [I-92]
55 | ≤ 100 | O=C(O)c1ccc(OC2=NOC(c3ccc(OC(F)(F)F)cc3)C2)cn1 (racemic) [I-97]
56 | ≤ 100 | O=C(O)CCc1ccc(OC2=NOC(c3ccc(Oc4ccccc4)cc3)C2)cn1 (racemic) [I-99]
57 | ≤ 100 | NC(=O)CCc1ccc(OC2=NOC(c3ccc(Oc4ccccc4)cc3)C2)cn1 (racemic) [I-100]
